In patent publication US20240124504A1, “AROMATIC HETEROCYCLIC COMPOUND, AND PHARMACEUTICAL COMPOSITION AND APPLICATION THEREOF” (GT APEIRON THERAPEUTICS LIMITED, priority 2020, published 2024):

How the values were obtained:
[1] = system: human breast cancer cells HCC70; assay: Cell biological activity detection (CyQuant, 72 hours), HCC70; type: cell-based; conditions: incubation for 72 hours
Summary of the method: (§1)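 A2780 and HCC70 cells seeded at 2000/well in RPMI 1640 + 10% FBS, treated next day with 9-point compound dilutions (top 10 μM, 1:4; 0.2% DMSO) for 72 h at 37 °C. Cell number read by CyQuant Direct nucleic acid stain (ex 488 nm); IC50 from dose–response fit.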

[2] = biological target: CDK9/cyclinT1 complex (Homo sapiens, UniProt P50750); assay: In-vitro enzymatic inhibitory activity testing, CDK9 inhibition assay (Caliper EZ Reader II); type: biochemical; conditions: CDK9/cyclinT1 8 nM, 180 min at 27° C.
Summary of the method: (§2)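 Enzyme preincubated 10 min with compound, then peptide substrate plus ATP added in 80 mM MES pH 6.5, 10 mM MgCl2 buffer; 180 min at 27 °C, stopped with EDTA.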

[3] = system: ovarian cancer A2780; assay: Cell biological activity detection (CyQuant, 72 hours), A2780; type: cell-based, human; conditions: A2780 cells, incubation for 72 hours
Summary of the method: as §1

[4] = biological target: CDK2/cyclinE1 complex (Homo sapiens, UniProt P24941); assay: In-vitro enzymatic inhibitory activity testing, CDK2 inhibition assay (Caliper EZ Reader II); type: biochemical; conditions: CDK2/cyclinE1 0.5 nM, 180 min at 27° C.
Summary of the method: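 CDK2/cyclinE1 (0.5 nM) phosphorylated 5-FAM-CDK7tide (2 μM) in MES buffer pH 6.5 with MgCl2, Tween 20 and BSA. Substrate and product were separated electrophoretically on a Caliper EZ Reader II. IC50 values came from nonlinear dose-response fits.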

[5] = biological target: CDK7/cyclinH/MAT1 complex (Homo sapiens, UniProt P50613); assay: In-vitro enzymatic inhibitory activity testing, CDK7 inhibition assay (Caliper EZ Reader II); type: biochemical; conditions: CDK7/cyclinH/MAT1 6 nM, 180 min at 27° C.
Summary of the method: as §2

[6] = biological target: T1, CDK12 (aa686-1082)/cyclinK complex (Homo sapiens, UniProt Q9NYV4); assay: In-vitro enzymatic inhibitory activity testing, CDK12 inhibition assay (Caliper EZ Reader II); type: biochemical; conditions: CDK12/cyclinK 50 nM, 180 min at 27° C.; read-out: CDK12 IC50
T1 construct: A CDK12 (aa686-1082)/cyclinK complex (50 nM)
Summary of the method: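 Caliper EZ Reader II mobility-shift separation of 5-FAM-CDK9tide substrate (2 μM) from phosphoproduct, using 50 nM CDK12 (aa686-1082)/cyclinK in 80 mM MES pH 6.5, 10 mM MgCl2, 0.01% Tween 20, 50 ug/mL BSA. Compound pre-incubated 10 min with enzyme, then substrate/ATP added for 180 min at 27° C; EDTA stop. IC50 by nonlinear dose-response regression.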

T1 sequence (Q9NYV4 686-1082, species assumed): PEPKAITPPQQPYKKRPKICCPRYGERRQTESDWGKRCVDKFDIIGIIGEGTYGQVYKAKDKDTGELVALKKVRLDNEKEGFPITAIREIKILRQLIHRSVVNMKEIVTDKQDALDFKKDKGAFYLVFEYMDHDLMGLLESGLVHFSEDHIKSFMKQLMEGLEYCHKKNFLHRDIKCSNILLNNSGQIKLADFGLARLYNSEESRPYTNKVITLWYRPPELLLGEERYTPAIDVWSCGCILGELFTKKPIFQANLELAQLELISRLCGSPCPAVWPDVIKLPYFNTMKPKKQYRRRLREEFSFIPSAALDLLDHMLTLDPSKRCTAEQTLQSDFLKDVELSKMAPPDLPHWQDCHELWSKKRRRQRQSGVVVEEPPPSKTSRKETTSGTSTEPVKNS
T1 sequence (O75909 whole entry partner, species assumed, the tested form may be a part): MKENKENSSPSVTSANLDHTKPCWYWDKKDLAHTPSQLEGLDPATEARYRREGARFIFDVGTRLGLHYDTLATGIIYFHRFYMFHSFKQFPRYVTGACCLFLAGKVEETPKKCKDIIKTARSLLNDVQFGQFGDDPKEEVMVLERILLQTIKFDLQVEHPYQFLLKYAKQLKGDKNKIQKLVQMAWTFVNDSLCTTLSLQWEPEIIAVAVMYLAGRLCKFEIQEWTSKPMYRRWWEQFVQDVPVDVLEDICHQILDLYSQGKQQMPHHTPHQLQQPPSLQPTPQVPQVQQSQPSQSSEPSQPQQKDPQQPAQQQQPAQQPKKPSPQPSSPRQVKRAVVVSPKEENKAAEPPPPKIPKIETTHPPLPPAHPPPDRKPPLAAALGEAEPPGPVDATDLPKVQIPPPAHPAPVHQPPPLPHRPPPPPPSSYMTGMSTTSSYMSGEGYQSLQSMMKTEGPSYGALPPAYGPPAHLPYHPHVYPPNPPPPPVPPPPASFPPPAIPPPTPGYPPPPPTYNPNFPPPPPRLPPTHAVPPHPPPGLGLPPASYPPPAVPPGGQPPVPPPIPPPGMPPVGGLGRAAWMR
Chain of CDK9/cyclinT1 complex (P50750 whole entry, species assumed): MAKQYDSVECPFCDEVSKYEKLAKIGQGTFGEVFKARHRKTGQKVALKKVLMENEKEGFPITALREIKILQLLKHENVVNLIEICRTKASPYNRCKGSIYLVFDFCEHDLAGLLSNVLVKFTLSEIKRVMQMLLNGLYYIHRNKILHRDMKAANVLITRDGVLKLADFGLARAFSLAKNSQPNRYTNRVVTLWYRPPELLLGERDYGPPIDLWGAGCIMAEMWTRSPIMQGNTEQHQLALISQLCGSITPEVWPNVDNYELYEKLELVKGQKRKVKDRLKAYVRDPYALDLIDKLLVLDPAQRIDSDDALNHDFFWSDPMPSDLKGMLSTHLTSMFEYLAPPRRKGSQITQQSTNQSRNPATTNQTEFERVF
Chain of CDK9/cyclinT1 complex (O60563 whole entry partner, species assumed): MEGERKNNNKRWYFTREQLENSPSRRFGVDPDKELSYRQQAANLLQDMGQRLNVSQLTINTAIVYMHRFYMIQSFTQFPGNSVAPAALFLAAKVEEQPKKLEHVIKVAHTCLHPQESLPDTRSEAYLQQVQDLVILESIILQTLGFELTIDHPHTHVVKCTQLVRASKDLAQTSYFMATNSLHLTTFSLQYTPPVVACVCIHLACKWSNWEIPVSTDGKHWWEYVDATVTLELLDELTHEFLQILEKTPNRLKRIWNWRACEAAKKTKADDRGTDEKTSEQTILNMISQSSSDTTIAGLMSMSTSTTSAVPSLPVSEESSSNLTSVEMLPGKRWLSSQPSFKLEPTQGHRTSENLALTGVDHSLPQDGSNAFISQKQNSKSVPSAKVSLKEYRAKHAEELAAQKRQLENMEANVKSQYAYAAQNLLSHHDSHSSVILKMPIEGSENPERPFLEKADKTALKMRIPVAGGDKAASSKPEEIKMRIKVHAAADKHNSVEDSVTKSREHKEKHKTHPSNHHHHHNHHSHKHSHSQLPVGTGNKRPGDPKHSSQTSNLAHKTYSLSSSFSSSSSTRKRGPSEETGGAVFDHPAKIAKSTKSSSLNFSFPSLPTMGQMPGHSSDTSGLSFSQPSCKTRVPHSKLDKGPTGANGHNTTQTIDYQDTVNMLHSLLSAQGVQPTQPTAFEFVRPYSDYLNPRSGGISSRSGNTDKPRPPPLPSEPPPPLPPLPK
Chain of CDK7/cyclinH/MAT1 complex (P50613 whole entry, species assumed): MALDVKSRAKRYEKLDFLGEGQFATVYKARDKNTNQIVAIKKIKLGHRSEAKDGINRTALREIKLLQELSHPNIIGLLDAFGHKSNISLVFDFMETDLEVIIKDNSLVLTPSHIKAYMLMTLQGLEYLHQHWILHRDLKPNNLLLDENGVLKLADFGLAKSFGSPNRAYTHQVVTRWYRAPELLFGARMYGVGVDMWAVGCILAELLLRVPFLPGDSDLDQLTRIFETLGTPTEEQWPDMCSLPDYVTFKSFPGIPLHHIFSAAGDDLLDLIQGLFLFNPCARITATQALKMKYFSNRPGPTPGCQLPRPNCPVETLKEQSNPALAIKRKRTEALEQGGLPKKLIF
Chain of CDK7/cyclinH/MAT1 complex (P51946 whole entry partner, species assumed): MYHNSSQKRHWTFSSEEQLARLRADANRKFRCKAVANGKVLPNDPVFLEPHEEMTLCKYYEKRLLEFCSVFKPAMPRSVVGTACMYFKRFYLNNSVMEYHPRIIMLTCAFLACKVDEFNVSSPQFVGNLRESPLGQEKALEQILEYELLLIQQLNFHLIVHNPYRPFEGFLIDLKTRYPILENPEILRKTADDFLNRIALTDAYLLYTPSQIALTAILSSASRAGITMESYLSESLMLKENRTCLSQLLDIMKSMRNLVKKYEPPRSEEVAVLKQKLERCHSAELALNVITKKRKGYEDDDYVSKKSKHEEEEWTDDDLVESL
Chain of CDK7/cyclinH/MAT1 complex (P51948 whole entry partner, species assumed): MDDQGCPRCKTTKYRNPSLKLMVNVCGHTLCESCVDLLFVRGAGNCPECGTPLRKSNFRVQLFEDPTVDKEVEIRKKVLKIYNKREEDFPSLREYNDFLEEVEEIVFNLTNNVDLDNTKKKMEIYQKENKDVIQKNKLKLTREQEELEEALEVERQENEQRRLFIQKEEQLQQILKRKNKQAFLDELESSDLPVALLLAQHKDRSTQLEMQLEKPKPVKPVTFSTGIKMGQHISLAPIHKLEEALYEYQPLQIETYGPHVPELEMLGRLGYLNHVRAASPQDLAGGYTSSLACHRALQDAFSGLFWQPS

SMILES | IC50 [1] [nM] | IC50 [2] [nM] | IC50 [3] [nM] | IC50 [4] [nM] | IC50 [5] [nM] | IC50 [6] [nM] | IC50 ([1]; Homo sapiens, HCC70, 72 h) [nM] | IC50 ([3]; Homo sapiens, A2780, 72 h) [nM]
CP(C)(=O)c1cccc2c(-c3nc(NCC4(O)CCOC4)ncc3C(F)(F)F)c[nH]c12 (single isomer, unassigned) [Compound 122] | 20 to 200 | > 50000 | 200 to 5000 | 5000 to 50000 | 20 to 200 | > 50000 | – | –
C[C@@H](O)CNc1ncc(C(F)(F)F)c(-c2c[nH]c3c(P(C)(C)=O)cccc23)n1 [Compound 172, (R)-(3-(2-((2-hydroxypropyl)amino)-5-(trifluoromethyl)pyrimidin-4-yl)-1H-indole-7-yl)dimethylphosphine oxide] | – | > 50000 | – | 200 to 5000 | 20 to 200 | > 50000 | 20 to 200 | 20 to 200
CC1(C)COCC(Nc2ncc(C(F)(F)F)c(-c3c[nH]c4c(P(C)(C)=O)c(C#N)ccc34)n2)CN1 (stereo not drawn) [Compound 76, 3-(2-((3,3-dimethyl-1,4-oxazepan-6-yl)amino)-5-(trifluoromethyl)pyrimidin-4-yl)-7-(dimethylphosphoryl)-1H-indole-6-carbonitrile] | – | > 50000 | – | > 50000 | 20 to 200 | > 50000 | 20 to 200 | 20 to 200
CP(C)(=O)c1cccc2c(-c3nc(NCC4(O)CC4)ncc3C(F)(F)F)c[nH]c12 [Compound 164] | – | > 50000 | – | 5000 to 50000 | < 20 | > 50000 | 20 to 200 | 20 to 200
CP(C)(=O)c1cccc2c(-c3nc(NC4(CO)CCOCC4)ncc3C(F)(F)F)c[nH]c12 [Compound 166, (3-(2-((4-(hydroxymethyl)tetrahydro-2H-pyran-4-yl)amino)-5-(trifluoromethyl)pyrimidin-4-yl)-1H-indole-7-yl)dimethylphosphine oxide] | – | > 50000 | – | > 50000 | 20 to 200 | > 50000 | 200 to 5000 | 200 to 5000
CP(C)(=O)c1cccc2c(-c3nc(N[C@H]4CCCC[C@@H]4O)ncc3C(F)(F)F)c[nH]c12 [Compound 165, (3-(2-(((1S,2S)-2-hydroxycyclohexyl)amino)-5-(trifluoromethyl)pyrimidin-4-yl)-1H-indole-7-yl)dimethylphosphine oxide] | – | > 50000 | – | 5000 to 50000 | 20 to 200 | > 50000 | 20 to 200 | 20 to 200
CP(C)(=O)c1cccc2c(-c3nc(NC4CC45CCNC5)ncc3C(F)(F)F)c[nH]c12 (single isomer, unassigned) [Compound 110] | 20 to 200 | > 50000 | < 20 | 5000 to 50000 | < 20 | 5000 to 50000 | – | –
CP(C)(=O)c1cccc2c(-c3nc(NCC4(O)CCOCC4)ncc3C(F)(F)F)c[nH]c12 [Compound 175] | – | > 50000 | – | 5000 to 50000 | 20 to 200 | > 50000 | 20 to 200 | 200 to 5000
FC(F)(F)c1cnc(NC2COC3(CCCNC3)C2)nc1-c1c[nH]c2nc(N3CCOCC3)ccc12 (stereo not drawn) [Compound 50, N-(4-(6-morpholinyl-1H-pyrrolo[2,3-b]pyridin-3-yl)-5-(trifluoromethyl)pyrimidin-2-yl)-1-oxa-7-azaspiro[4.5]decan-3-amine] | – | > 50000 | – | 5000 to 50000 | 200 to 5000 | 5000 to 50000 | 200 to 5000 | 200 to 5000
CP(C)(=O)c1cccc2c(-c3nc(N[C@@H]4CC[C@@]5(CCNC5)C4)ncc3C(F)(F)F)c[nH]c12 [Compound 99, (3-(2-(((5R,7R)-2-azaspiro[4.4]non-7-yl)amino)-5-(trifluoromethyl)pyrimidin-4-yl)-1H-indole-7-yl)dimethylphosphine oxide] | – | 5000 to 50000 | – | 200 to 5000 | < 20 | 200 to 5000 | < 20 | < 20
CP(C)(=O)c1cccc2c(-c3nc(NCC4(O)CCCC4)ncc3C(F)(F)F)c[nH]c12 [Compound 151] | – | > 50000 | – | 5000 to 50000 | 20 to 200 | > 50000 | 20 to 200 | 20 to 200
CP(C)(=O)c1cccc2c(-c3nc(NC4CCC5(CCNC5)C4)ncc3C(F)(F)F)c[nH]c12 (single isomer, unassigned) [Compound 98] | – | 5000 to 50000 | – | 200 to 5000 | < 20 | 5000 to 50000 | < 20 | < 20
CP(C)(=O)c1cccc2c(-c3nc(NC4CC45CCNC5)ncc3C(F)(F)F)c[nH]c12 (single isomer, unassigned) [Compound 108] | – | 5000 to 50000 | – | 200 to 5000 | < 20 | 200 to 5000 | < 20 | < 20
CN(C)[C@H]1CC[C@H](Nc2ncc(C(F)(F)F)c(-c3c[nH]c4nc(C#N)ccc34)n2)C1 [Compound 66] | – | 5000 to 50000 | – | 200 to 5000 | 20 to 200 | 200 to 5000 | < 20 | 20 to 200
CP(C)(=O)c1cccc2c(-c3nc(N[C@@H]4COCC[C@H]4O)ncc3C(F)(F)F)c[nH]c12 [Compound 167] | – | > 50000 | – | > 50000 | 20 to 200 | > 50000 | 200 to 5000 | 200 to 5000
FC(F)(F)c1cnc(N[C@@H]2CCC23CNC3)nc1-c1c[nH]c2nc(N3CCOCC3)ccc12 [Compound 59, (R)—N-(4-(6-morpholinyl-1H-pyrrolo[2,3-b]pyridin-3-yl)-5-(trifluoromethyl)pyrimidin-2-yl)-2-azaspiro[3.3]heptan-5-amine] | – | 5000 to 50000 | – | 5000 to 50000 | < 20 | > 50000 | 20 to 200 | 20 to 200
FC(F)(F)c1cnc(NC2CCC3CNCC32)nc1-c1c[nH]c2nc(N3CCOCC3)ccc12 (single isomer, unassigned) [Compound 57] | 200 to 5000 | > 50000 | 200 to 5000 | > 50000 | 200 to 5000 | > 50000 | – | –
CC(O)[C@H](C)Nc1ncc(C(F)(F)F)c(-c2c[nH]c3c(P(C)(C)=O)cccc23)n1 (mixture of isomers) [Compound 128, (3-(2-(((2S)-3-hydroxybutan-2-yl)amino)-5-(trifluoromethyl)pyrimidin-4-yl)-1H-indole-7-yl)dimethylphosphine oxide] | – | > 50000 | – | 5000 to 50000 | < 20 | > 50000 | 20 to 200 | < 20
CP(C)(=O)c1cccc2c(-c3nc(NC4(CO)CCOC4)ncc3C(F)(F)F)c[nH]c12 (stereo not drawn) [Compound 117, (3-(2-((3-(hydroxymethyl)tetrahydrofuran-3-yl)amino)-5-(trifluoromethyl)pyrimidin-4-yl)-1H-indole-7-yl)dimethylphosphine oxide] | – | > 50000 | – | 5000 to 50000 | < 20 | > 50000 | < 20 | < 20
